SMILES | melting point [°C]
ClC(Cl)(Cl)c1nc(NCc2ccccc2)nc(C(Cl)(Cl)Cl)n1 | 96.5 to 97
CCOc1ccc(C(C)=O)cc1C(=O)O | 122 to 125
CC(Oc1ccc(Oc2ncc(Cl)cc2F)cc1)C(=O)O (configuration not stated) | 95 to 97
COc1cc(CC(C#N)=CN2CCOCC2)cc(OC)c1N | 128 to 129
COCCOc1ccc(/C=C/COC(=O)NS(=O)(=O)N2CCCC2)c(Oc2ncc(C(F)(F)F)cc2Cl)c1 | 123 to 124
O=C(CNc1ccc(F)cc1)Nc1c(Cl)ccc2nc(N3CC[C@@H](O)C3)ccc12 | 242 to 246
CCCCCCCCCCCCCCCCNc1ccc(C(=O)NS(=O)(=O)c2ccc(N)cc2)cc1 | 193 to 196
O=c1oc2c(c(O)c1C(c1ccccc1)C1CC1)CCCCCCCC2 (configuration not stated) | 87.6 to 90.4
CSC(C)=NOC(=O)N(C)SCCSN(C)C(=O)ON=C(SC)C(=O)N(C)C | 102 to 106
COC(=O)c1cn(-c2ccc(O)cc2C)c(C2CCC(Br)C(Br)C2)cc1=O (configuration not stated) | 197 to 200
O=C(O)C(=O)c1ccc(OCC(=O)C2CCCCCCC2)cc1 | 109 to 110
Cc1nc(Sc2cccc(C(F)(F)F)n2)sc1CC(=O)O | 162 to 164
C=C1NC(=O)OC12CCN(Cc1ccccc1)CC2 | 169 to 170
CCOc1nc2ccccc2nc1N(CC)C(=O)N1CCN(c2cc(C)cc(C)c2)CC1 | 142 to 144
C#CCn1c(CC)nc2c(N)nc3ccccc3c21 | 182 to 184
Cc1ccc(C)c(OCCCC(C)(C)C(=O)Nc2ccc3c(c2)OCO3)c1 | 89 to 90
O=C(O)C=CC(=O)NNC(=O)N1Cc2ccccc2Oc2ccc(Cl)cc21 | 171 to 172
CCc1ccc2c(c1)c(-c1ccccc1Cl)c(C(=O)O)c(=O)n2C | 200 to 201
CC(=O)CC(=O)NCCNC(=O)OCc1ccccc1 | 116 to 118
NC(=O)NCC#CCN1CCCC1 | 71 to 73
CCn1cc(C(=O)O)c(=O)c2cc(F)c(N3CCNC(c4c[nH]c5ccccc45)C3)cc21 (configuration not stated) | 230
Cn1ncc(C(=O)c2ccc(S(C)(=O)=O)c(C3=NOCC3)c2Cl)c1O | > 250
COC(=O)C(C)(Oc1cccc(Oc2c(Cl)cc(C(F)(F)F)cc2Cl)c1)[N+](=O)[O-] (configuration not stated) | 78
O=C(c1ccccc1)c1cc2c(s1)S(=O)(=O)CCc1cc(=O)n(-c3ccc(Cl)cc3)nc1-2 | 254 to 256
CCCCC(Cn1cncn1)(C(N)=O)c1ccc(Cl)cc1 (configuration not stated) | 197 to 199

SMILES | melting point [°C]
N#CC=C1CCN(c2ccc(N3C[C@@H](Cn4cc(CCC(=O)O)nn4)OC3=O)cc2)CC1 | 120 to 122
CNc1nc(-c2cccc(-c3ccc(S(C)=O)cc3)c2)c2cc(OC)c(OC)cc2n1 (configuration not stated) | 153 to 155
O=C(OC1CCCCCC1)c1ncn2c1[C@@H]1CCCN1C(=O)c1c(Cl)cccc1-2 | 179 to 180
CC(C)c1ccc(NC(=O)c2ccc(C(=O)O)cn2)cc1C(C)C | 188 to 190
O=S(=O)(Nc1ccc(Cl)cc1-c1nc2ccccc2[nH]1)c1ccc(Cl)cc1 | 225 to 228
CCOC(=O)Cc1ccc(NC(=O)C(COc2ccc(Cl)cc2)NS(=O)(=O)c2ccc(Cl)cc2)cc1 (racemic) | 136 to 138
CCCn1c(=O)c2[nH]c(/C=C/c3ccccc3F)nc2n(CCC)c1=O | 259
N#Cc1c(Cl)cccc1SSc1ccc([N+](=O)[O-])cc1C(Cl)(Cl)Cl | 137
C[Si](C)(C)c1cccs1 | 61 to 62
O=C1c2cc(I)ccc2-n2c1nc1ccccc1c2=O | 296 to 297
O=C(O)c1cc(NCc2c(F)c(F)c(C(F)(F)F)c(F)c2F)ccc1OC(=O)C1CCCCC1 | 190 to 193
O=C(O)CSCc1cc2c(cc1Cc1ccccc1)OCO2 | 99.5 to 100
FC(F)(F)c1ccc2c(Cl)nccc2n1 | 90
CC(=O)Oc1c(C)cc(OCC(=O)c2ccc(C(C)C)cc2)c2ccccc12 | 105 to 106
COc1cccc(CC2CCCc3cc(OCc4ccccc4)c(OC)cc3N2)c1 (configuration not stated) | 92 to 93
CC(C)N1Cc2c(Cl)nc(Cl)nc2C1=O | 122 to 123
Nc1nc2[nH]c3ccccc3c2c(=O)[nH]1 | > 340
Clc1ccc2c(NCCC34C=CCN3CCC4)ccnc2c1 (configuration not stated) | 124 to 125
Cc1ccc(NC(=O)Nc2cccc(Oc3ccc4nc(COc5ccc(CC6SC(=O)NC6=O)cc5)n(C)c4c3)c2)cc1 (configuration not stated) | 173 to 175
CN1CCC(OC(=O)N2c3ccccc3NC(=O)c3ccccc32)CC1 | 203 to 204
O=[N+]([O-])c1c(Cl)cccc1-c1nc2ccccc2[nH]1 | > 260
COc1ccc(-c2[nH]c(-c3ccc(N)c(C)c3)nc2C(=O)Nc2nccs2)cc1 | > 250
Cc1cnc(CSc2cc3ccccc3[nH]2)cc1N1CCCCC1 | 138 to 139
O=C(O)c1ccc(-c2nc(-c3cccnc3)cs2)cc1 | 303 to 304

Results, then the molecule that gave them:

melting point [°C] | SMILES
168 | Cc1c(NC(=O)c2ccc(OCC3CC3)cc2)ccc2cc(CN3CCCC3)cnc12
300 to 301 | Cc1cccc2nc3n(c(=O)c12)-c1ccc(F)cc1C3=O
67 to 69 | CCC(=O)C(Cc1cc(C#N)cc(C#N)c1)C(=O)CC
124 to 126 | COc1ccc(-c2nn(C(C)C)c(=O)c3ccsc23)cc1
124 to 125 | O=C1NC(=O)C(c2ccc3c(c2)CCC3)S1 (configuration not stated)
116 to 118 | CCOC(=O)C1(CCCCOc2ccc(C(=O)OC)cc2)Cc2c(OC)c(OC)c(OC)c(OC)c2C1=O (configuration not stated)
182 to 183 | CC(F)(F)c1cccc(C[C@@H](NC(=O)c2ccc(F)c3ccccc23)[C@@H](O)c2ccc(F)cc2)c1 (racemic)
125 to 126 | C#CCOc1ccccc1OS(=O)(=O)NC(=O)Nc1nc(OC)cc(OC)n1
137 to 138 | CCOCN1N=NC(=S)C1C (configuration not stated)
166 to 167 | CCOC(=O)N(CC(=O)O)C(=O)c1c(OCC(F)(F)F)ccc2c(C(F)(F)F)c(OC)ccc12
207 to 208 | COc1ccnc(C(=O)c2[nH]c3cc(Cl)ccc3c2NC(C)=O)c1
173 to 174 | COc1cc(C(C)C)c2c(c1)S(=O)(=O)N(COc1cc(C(F)(F)F)nn1-c1ccc(Cl)cn1)C2=O
143 to 146 | Cc1nc(-n2cc(C(O)c3ccccc3)nn2)sc1C(=O)NCc1ccccc1 (configuration not stated)
185 to 186 | O=C(O)c1cccc(-c2ccc3c(c2)N(Cc2cccc(Cl)c2Cl)CC3)c1
214 | COC(=O)c1cccc(S(=O)(=O)N2CCC(N3N=C(c4ccc(OC)c(OC)c4)C(C)(C)C3=O)CC2)c1
214 to 216 | CC(C)(c1ccc(Oc2ccc(N3C(=O)C=CC3=O)cc2)cc1)c1ccc(C(C)(C)c2ccc(Oc3ccc(N4C(=O)C=CC4=O)cc3)cc2)cc1
184 | COc1cc(N)c(Cl)cc1-c1nn(C2CCN(CCc3ccccc3)CC2)c(=O)o1
44 to 47 | O=S1(=O)N=Cc2ccccc2O1
195 to 197 | Cc1nc2c(N)nc3ccccc3c2o1
115 to 116 | O=S(=O)(Nc1cccc(CCOCc2csc(-c3ccc(OC(F)(F)F)cc3)n2)c1)C(F)(F)F
102 to 104 | COc1cc(C(=O)c2cccs2)cc([N+](=O)[O-])c1OC
108 | COc1ccc(S(=O)C(C)(CC=C(C)C)C(=O)NO)cc1 (configuration not stated)
218 to 220 | O=C(O)C1=Cc2cc(Cl)cc(Cl)c2SC1C(F)(F)F (configuration not stated)
159 | CC#CCOc1ccc(S(=O)C(C(=O)NO)c2cccc3ccccc23)cc1 (configuration not stated)

melting point [°C] | SMILES
159 to 160 | CCc1ccc(Sc2nn(-c3ccc(OC)cc3)c(=O)c(C#N)c2C)cc1
102 to 104 | COc1nc2ccccn2c(=O)c1-c1ccc(NC2CCN(C(=O)OC(C)(C)C)C2)cc1 (configuration not stated)
120 to 122 | O=C1O[C@@H](c2ccccc2)N(C(=O)OCc2ccccc2)[C@H]1Cc1ccccc1
119 to 121 | Cc1c(SCCCSCCn2c([N+](=O)[O-])cnc2C)ccnc1CNc1ncncc1Cl
208 to 209 | C=CCNC(=O)NCC1Cc2ccc(-c3ccc(=O)[nH]n3)cc2C1 (configuration not stated)
129 to 130 | CCOC(=O)c1cc2c(O)c(C(=O)OCC)n(C)c2nc1C(=O)OCC
75 | CC(C)(OCc1cc2cc(C(F)(F)F)ccc2n1S(=O)(=O)c1ccc2c(c1)OCCO2)C(=O)O
178 to 180 | O=C(Nc1ccc(Br)cc1)c1cc2ccccc2o1
145 to 151 | CC(N)CC(=O)N(c1ccc(Nc2ccccc2)cc1)C(C)C (configuration not stated)
120 to 126 | O=C(O)c1ccccc1Nc1ccc(CCCc2ccc(Cl)c(Cl)c2)cc1
169 to 171 | CSCC[C@H](NC(=O)OC(C)(C)C)C(=O)NCC(=O)Oc1c(Cl)c(Cl)c(Cl)c(Cl)c1Cl
163 to 165 | CC(=O)c1c(CO)[nH]c(-c2ccncc2)c1C
190 to 192 | CC(C(N)=O)c1ccc2c(c1)C(=O)Cc1ccccc1S2 (configuration not stated)
122 to 127 | CCCCCCCCCCCCCCCCCCOc1cc(OC(C)=O)cc(N(CC(=O)O)CC(=O)O)c1
73 to 75 | CCOC(=O)/C=C(C)/C(F)=C/C=C(C)/C=C/c1c(C)sc(C)c1C
58 to 60 | CCCCNC(=O)C1CC(C)(C)NC(C)(C)C1=NO (configuration not stated)
199 to 204 | CON1CCC2(CC1)OC(=O)C(c1cc(C)c(C)cc1C)=C2O
250 to 252 | NC(=O)NCc1cc2cc(CN3CCOCC3)cc3c(=O)c(C(=O)NCc4ccc(Cl)cc4)cn1c23
142 to 144 | CC(=NOCCO)c1ccc(-c2ccc(C)cc2)cc1
86 to 88 | O=C1CCCc2nc3ccccc3c(NCCCC(c3ccccc3)c3ccccc3)c21
208 to 210 | C=C1c2cccc(NC(=O)c3c(Cl)cccc3Cl)c2OC1(C)OC (configuration not stated)
> 260 | CN(C)c1ccc(Nc2cccc3c2C(=O)N(C2CCC(=O)NC2=O)C3=O)cc1 (configuration not stated)
80 to 82 | COC(=O)C(C#N)c1cccc2ccc(OC)cc12 (configuration not stated)
135 to 136 | CC(C)N(C(=O)n1oc(=O)n(C)c1=O)c1ccc(F)cc1

Source: a melting point compilation (Tetko et al.; mined from patent text by program, amines drawn as free bases though some values may be those of a salt)
